# Source: article PMC4488699, “Proteasome as a Molecular Target of Microcystin-LR” (Toxins, 2015)
# Like-named read-outs stand apart in the source and are kept apart here. Numbered stars: 1 amine (or outer) side, 2 acyl side, 3 side chain; on linkers, the order of the positions; unused ones are H or OH. Bridge positions count the residues as written; N and C are the ends. Square brackets hold non-standard residues; d marks the D form. Peptide text beside a SMILES is read from it. * marks the point of attachment. Adda = CO[C@@H](Cc1ccccc1)[C@@H](C)/C=C(C)/C=C/[C@H](N[*:1])[C@H](C)C(=O)[*:2]; dAsp(3S-Me) = C[C@H](C(=O)[*:3])[C@@H](N[*:1])C(=O)[*:2]; d(γGlu) = O=C(O)[C@@H](CCC(=O)[*:2])N[*:1]; Cbz = O=C(OCc1ccccc1)*; NMeDha = C=C(NC)C(=O)O
# What was measured:
# [1] = test system: proteasome CT activity in PC-3-GFP^u whole cell extracts; assay type: cell-based
# [2] = test system: proteasome PGPH activity in PC-3-GFP^u whole cell extracts; assay type: cell-based
# [3] = test system: serine/threonine protein phosphatases (PPs); conditions: cited from earlier work
# [4] = test system: protease; conditions: cited from earlier work
# [5] = test system: animal cells; conditions: cited from earlier work
# [6] = test system: proteasome TL activity in PC-3-GFP^u whole cell extracts; assay type: cell-based
# [7] = test system: PC-3-GFP^u cells; assay type: cell-based
# [8] = test system: proteasome TL activity in the liver of Gobiocypris rarus; conditions: in vivo
SMILES,effect on cellular proteasome CT activity [1],effect on cellular proteasome PGPH activity [2],inhibition of serine/threonine protein phosphatases [3],degradation by protease [4],induction of oxidative stress [5],inhibition of cellular proteasome TL activity [6],GFP degradation / accumulation of ubiquitinated GFP [7],dose dependence of inhibition of proteasome TL activity in the liver [8],inhibition rate of proteasome TL activity in the liver ([8]; pH 7.4),"GFP degradation / accumulation of ubiquitinated GFP ([7]; MG-132 1 μM (positive control), 24 h, vs DMSO, fluorescence microscopy)"
"C=C1C(=O)N[C@H](C)C(=O)N[C@@H](CC(C)C)C(=O)N[C@@H](C(=O)O)[C@H](C)C(=O)N[C@@H](CCCNC(=N)N)C(=O)N[C@@H](/C=C/C(C)=C/[C@H](C)[C@H](Cc2ccccc2)OC)[C@H](C)C(=O)N[C@@H](C(=O)O)CCC(=O)N1C [MC-LR, microcystin-LR] (R[Adda][d(γGlu)][NMeDha][dA]L[dAsp(3S-Me)]-OH; lactam N-7)",did not evidently change,slightly inhibited,inhibition to serine/threonine protein phosphatases,cannot be degraded by protease,induce oxidative stress in animal cells,34%,Ubiquitinated GFP also accumulated,dose-dependently inhibited,43%,–
CC(C)C[C@@H](C=O)NC(=O)[C@H](CC(C)C)NC(=O)[C@H](CC(C)C)NC(=O)OCc1ccccc1 [MG-132] (Cbz-Leu-Leu-Leu-aldehyde),–,–,–,–,–,–,–,–,–,GFP degradation was retarded and ubiquitinated GFP accumulated
